Experimental data from ChEMBL document CHEMBL1201862, “PubChem BioAssay data set” (2004).
Active and inactive are the calls of the source.

Tests used:
[1] = biological target: T1, High affinity choline transporter 1 (Homo sapiens, UniProt Q9GZV3); test: CHT inhibitors, dose response, cell-based, 5-point CRC, membrane potential dye (AID 504840); type: functional
T1 sequence (Q9GZV3 whole entry): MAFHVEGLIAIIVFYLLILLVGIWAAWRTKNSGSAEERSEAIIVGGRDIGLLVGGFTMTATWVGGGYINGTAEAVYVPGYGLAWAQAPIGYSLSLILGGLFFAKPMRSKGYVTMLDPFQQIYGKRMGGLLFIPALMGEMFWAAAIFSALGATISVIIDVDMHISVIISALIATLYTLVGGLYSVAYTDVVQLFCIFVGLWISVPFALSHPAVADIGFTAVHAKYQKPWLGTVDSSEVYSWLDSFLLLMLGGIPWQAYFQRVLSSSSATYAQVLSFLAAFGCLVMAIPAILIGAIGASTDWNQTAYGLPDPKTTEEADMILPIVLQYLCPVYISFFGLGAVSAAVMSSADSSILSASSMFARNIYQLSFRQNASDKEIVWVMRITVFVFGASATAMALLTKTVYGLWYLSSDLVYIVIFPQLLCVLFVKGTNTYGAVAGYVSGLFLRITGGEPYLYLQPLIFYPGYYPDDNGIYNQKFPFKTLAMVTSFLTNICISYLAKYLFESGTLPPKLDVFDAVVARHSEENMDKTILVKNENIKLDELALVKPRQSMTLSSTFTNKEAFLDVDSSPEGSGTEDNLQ

[2] = biological target: T2, Heat shock factor protein 1 (Mus musculus, UniProt P38532); test: inhibition of MG132-induced HSE-luciferase signal, confirmation, cell-based, NIH3T3, luminescence, dose retest (AID 2382); type: functional;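 further: NIH3T3 fibroblasts with HSF1-driven luciferase reporter stressed by proteasome inhibitor MG132; luminescence from HSF1-driven luciferase expression after 8 hours of MG132 stress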
T2 sequence (P38532 whole entry): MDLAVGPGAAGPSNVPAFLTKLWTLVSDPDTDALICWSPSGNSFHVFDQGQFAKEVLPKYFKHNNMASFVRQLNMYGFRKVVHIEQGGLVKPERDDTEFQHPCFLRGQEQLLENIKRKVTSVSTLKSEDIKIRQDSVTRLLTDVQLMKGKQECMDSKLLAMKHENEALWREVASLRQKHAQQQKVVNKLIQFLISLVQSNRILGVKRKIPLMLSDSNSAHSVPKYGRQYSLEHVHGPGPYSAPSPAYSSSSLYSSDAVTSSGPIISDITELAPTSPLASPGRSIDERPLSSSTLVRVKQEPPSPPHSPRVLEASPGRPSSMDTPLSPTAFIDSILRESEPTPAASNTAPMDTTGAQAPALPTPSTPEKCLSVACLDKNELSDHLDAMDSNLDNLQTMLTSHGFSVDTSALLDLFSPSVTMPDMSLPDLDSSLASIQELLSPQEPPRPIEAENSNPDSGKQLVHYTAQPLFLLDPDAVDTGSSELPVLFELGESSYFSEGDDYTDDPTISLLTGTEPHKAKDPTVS

[3] = biological target: T3, Rac GTPase-activating protein 1 (Homo sapiens, UniProt Q9H0H5); test: MgcRacGAP GTPase-activating activity inhibitors, confirmation, biochemical, ADP Hunter fluorescence, primary and confirmatory (AID 624330); type: functional
T3 sequence (Q9H0H5 whole entry): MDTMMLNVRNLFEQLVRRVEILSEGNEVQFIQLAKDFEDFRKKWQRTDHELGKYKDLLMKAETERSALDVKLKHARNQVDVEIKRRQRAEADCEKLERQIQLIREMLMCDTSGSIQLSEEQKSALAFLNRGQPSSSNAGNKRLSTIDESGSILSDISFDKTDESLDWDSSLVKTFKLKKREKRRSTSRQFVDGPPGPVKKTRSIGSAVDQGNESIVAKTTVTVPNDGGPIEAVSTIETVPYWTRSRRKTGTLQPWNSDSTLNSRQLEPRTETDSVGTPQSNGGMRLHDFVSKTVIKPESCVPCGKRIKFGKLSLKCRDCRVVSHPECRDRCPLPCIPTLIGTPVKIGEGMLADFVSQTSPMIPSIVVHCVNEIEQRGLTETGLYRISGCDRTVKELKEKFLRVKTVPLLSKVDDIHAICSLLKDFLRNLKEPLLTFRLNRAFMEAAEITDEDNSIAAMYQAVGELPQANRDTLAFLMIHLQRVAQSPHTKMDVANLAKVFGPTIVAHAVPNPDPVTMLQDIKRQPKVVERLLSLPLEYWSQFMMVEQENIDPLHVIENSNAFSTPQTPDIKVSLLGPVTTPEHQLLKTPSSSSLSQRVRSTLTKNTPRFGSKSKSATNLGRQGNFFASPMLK

[4] = biological target: FAD-linked sulfhydryl oxidase ALR (Homo sapiens, UniProt P55789); test: inhibitors of human ALR sulfhydryl oxidase, dose response, biochemical, H2O2 detection, luminescence, cherry-pick (AID 493248)
Protein skinhead-1 = biological target: T4, Protein skinhead-1 (Caenorhabditis elegans, UniProt P34707); type: functional
T4 sequence (P34707 whole entry): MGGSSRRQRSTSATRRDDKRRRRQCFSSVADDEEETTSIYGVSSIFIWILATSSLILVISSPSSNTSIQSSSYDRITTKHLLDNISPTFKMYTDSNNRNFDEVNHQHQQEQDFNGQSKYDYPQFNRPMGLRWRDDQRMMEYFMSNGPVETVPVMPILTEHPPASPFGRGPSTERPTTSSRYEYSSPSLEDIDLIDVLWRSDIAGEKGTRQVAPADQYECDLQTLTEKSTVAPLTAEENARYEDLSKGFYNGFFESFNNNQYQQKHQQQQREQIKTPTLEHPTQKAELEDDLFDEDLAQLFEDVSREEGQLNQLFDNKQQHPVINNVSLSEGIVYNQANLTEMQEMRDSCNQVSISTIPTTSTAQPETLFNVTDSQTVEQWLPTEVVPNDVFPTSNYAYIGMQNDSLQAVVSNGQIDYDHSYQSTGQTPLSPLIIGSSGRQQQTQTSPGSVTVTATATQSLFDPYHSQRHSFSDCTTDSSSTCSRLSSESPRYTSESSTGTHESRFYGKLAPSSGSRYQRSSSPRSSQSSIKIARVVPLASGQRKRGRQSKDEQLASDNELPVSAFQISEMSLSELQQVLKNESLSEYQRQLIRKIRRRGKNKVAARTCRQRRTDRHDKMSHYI

[5] = inhibitors of clade B AD8 Env fusion, dose response, cell-based, cherry-pick (AID 652062); type: functional;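 further: luciferase signal from cell-cell fusion driven by HIV-1 clade B AD8 Env; potency is for inhibitors of fusion seen as a drop in luminescence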
[6] = inhibitors of HIV Env-driven cell fusion, dose response, cherry-pick (AID 652057); type: functional, cell-based
[7] = off-target signal loss in HeLa-CEM21 co-culture – HeLa F-luc CTL cells, cherry-picked, counter-screen for HIV-1 Env fusion inhibitor project, dose response (AID 652040); type: functional, cell-based;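 further: potency for signal decrease marking cytotoxic or nonspecific inhibition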
[8] = ZM109 Env clade C HIV-1 fusion inhibitors, dose response, HeLa effector, CEM target cells, luciferase, cherry-pick (AID 652058); type: functional, cell-based
Large T antigen = Large T antigen (Simian virus 40, UniProt P03070); type: functional, Betapolyomavirus macacae;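 further: Confirmatory-stage PubChem screen for compounds that inhibit SV40 T antigen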
P388 = test: cells; type: functional; details: Mus musculus
SN12K1 = test: cells; type: functional; details: Homo sapiens
P388/ADR = test: cells; type: functional; details: Mus musculus
[9] = intracellular Trypanosoma cruzi inhibitors in host cells – cell-based, plate reader, cherry-pick samples, set 3, dose response (AID 651818); type: functional;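 further: compounds incubated with infected cells for about four days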

Sequence of FAD-linked sulfhydryl oxidase ALR (P55789 whole entry): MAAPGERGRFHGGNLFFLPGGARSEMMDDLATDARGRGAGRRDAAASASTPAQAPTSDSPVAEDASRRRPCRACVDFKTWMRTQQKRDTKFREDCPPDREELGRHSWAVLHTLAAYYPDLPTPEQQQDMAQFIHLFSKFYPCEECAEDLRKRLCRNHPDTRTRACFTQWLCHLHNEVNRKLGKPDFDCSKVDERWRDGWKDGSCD
Sequence of Large T antigen (P03070 whole entry): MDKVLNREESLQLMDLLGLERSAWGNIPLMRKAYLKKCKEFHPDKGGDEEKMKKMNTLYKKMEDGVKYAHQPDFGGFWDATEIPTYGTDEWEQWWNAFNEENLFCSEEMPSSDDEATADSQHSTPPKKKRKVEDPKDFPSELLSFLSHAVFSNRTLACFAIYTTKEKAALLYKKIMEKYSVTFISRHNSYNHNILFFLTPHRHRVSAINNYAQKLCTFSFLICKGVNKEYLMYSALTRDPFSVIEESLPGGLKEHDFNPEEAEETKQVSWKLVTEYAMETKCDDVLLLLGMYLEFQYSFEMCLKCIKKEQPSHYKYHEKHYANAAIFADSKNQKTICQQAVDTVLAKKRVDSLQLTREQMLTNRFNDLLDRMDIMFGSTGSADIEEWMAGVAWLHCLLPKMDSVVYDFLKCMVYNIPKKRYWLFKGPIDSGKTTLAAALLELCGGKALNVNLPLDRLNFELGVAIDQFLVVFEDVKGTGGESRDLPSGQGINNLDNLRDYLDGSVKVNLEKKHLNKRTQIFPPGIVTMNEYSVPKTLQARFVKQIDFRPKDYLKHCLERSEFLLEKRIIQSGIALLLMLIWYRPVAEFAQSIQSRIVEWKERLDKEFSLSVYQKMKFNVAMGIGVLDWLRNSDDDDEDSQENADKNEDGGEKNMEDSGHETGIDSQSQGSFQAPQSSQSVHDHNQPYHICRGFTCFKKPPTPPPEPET

| Structure (SMILES) | GI50 (P388) | GI50 (SN12K1) | GI50 (P388/ADR) | AC50 [9] | other results |
| --- | --- | --- | --- | --- | --- |
| COc1ccc(C(=O)N(C)Cc2ccc(C)o2)cc1OC1CCN(C(C)C)CC1 |  |  |  |  | IC50 [1]: 12.6 µM (active) |
| O=C(Nc1ccc(F)c(Cl)c1)C1CCN(S(=O)(=O)c2cccnc2)CC1 |  |  |  |  | IC50 [1]: 13.2 µM (active); EC50 [2]: > 195 µM (not active) |
| CCN(CC)c1ccc(NC(=O)CNCc2ccccc2Cl)c(C)c1 |  |  |  |  | IC50 [3]: 31 µM (active); AC50 [4]: 1.61 µM (active); IC50 [1]: 20.9 µM (active) |
| Cc1cc(C)c2nc(C(F)(F)F)nc(N3CCN(C(=O)c4ccco4)CC3)c2c1 |  |  |  |  | IC50 (Protein skinhead-1): > 100 µM (inactive); AC50 [5]: 25.7 µM (active); AC50 [6]: 31.2 µM (active); AC50 [7]: 21.9 µM (active); AC50 [8]: 1.22 µM (active) |
| CN(C)c1ccc(C(=O)c2ccc(O)cc2O)cc1 |  |  |  |  | IC50 [1]: 11 µM (active) |
| O=C1NC(=O)N(c2ccc(Cl)cc2)C(=O)/C1=C/c1coc2ccc(O)cc2c1=O |  |  |  |  | IC50 [1]: 12.7 µM (active); IC50 (Large T antigen): > 100 µM (active) |
| CCC1(C)Cc2c(sc3nnn(CC(=O)Nc4ccccc4)c(=O)c23)CO1 (stereo not drawn) |  |  |  |  | IC50 [1]: 11.5 µM (active) |
| COc1cccc2c1C(=O)c1c(O)c3c(c(O)c1C2=O)C[C@@](O)(C(C)=O)C[C@@H]3OC1CC(N)C(O)C(C)O1 (stereo partly drawn) | 0.076 µM (active) | 0.069 µM (active) | 1.23 µM (inactive) |  |  |
| CCCn1c2ccccc2c2cnn(CC(=O)NCCN(C)C)c(=O)c21 |  |  |  |  | IC50 [1]: 11.5 µM (active) |
| Cc1ccc(N(O)C(C)(C)C)cc1 | > 52.1 µM (inactive) | > 100 µM (inactive) | 24.8 µM (inactive) |  |  |
| C/C(=N\NC(=S)N1CCN(c2ccccn2)CC1)c1ncccn1 | 0.00326 µM (active) | 0.007 µM (active) | 0.00356 µM (active) |  |  |
| O=C1N[C@@H]([C@H]2CC[C@H](Cl)CN2)C(=O)N[C@H]1[C@H]1CC[C@H](Cl)CN1 | 0.327 µM (active) | 1.02 µM (active) | 0.318 µM (active) |  |  |
| O=[N+]([O-])c1cc2ncc(-c3ccccc3)c(O)c2cc1/C(Cl)=C/c1ccccc1 | 7.35 µM (inactive) | 9.08 µM (inactive) | 4.53 µM (inactive) |  |  |
| CC(=O)/C=C/c1c[nH]c(=O)[nH]c1=O | 164 µM (inactive) | 121 µM (inactive) | 148 µM (inactive) |  |  |
| NC(=O)NN=C(CS)CS | 19.1 µM (inactive) | 18.7 µM (inactive) | 29.2 µM (inactive) |  |  |
| O=C(NCCCCCCNC(=O)n1cc(F)c(=O)[nH]c1=O)NCCCOCCOCCCNC(=O)C(O)C(O)C(O)C(O)CO (stereo not drawn) | 0.107 µM (active) | > 1.91 µM (inactive) | 0.0822 µM (active) |  |  |
| CC(=O)NC(Cc1ccsc1)C(=O)O (stereo not drawn) | > 100 µM (inactive) | > 100 µM (inactive) | > 100 µM (inactive) |  |  |
| COc1cc(/N=N\c2cccc(S(=O)(=O)O)c2)c(C)cc1/N=N\c1ccc(/C=C/c2ccc(/N=[N+](/[O-])c3ccc(/C=C/c4ccc(/N=N\c5cc(C)c(/N=N/c6cccc(S(=O)(=O)O)c6)cc5OC)cc4)c(S(=O)(=O)O)c3)cc2S(=O)(=O)O)cc1 | > 100 µM (inactive) | > 100 µM (inactive) |  |  |  |
| C[C@H](CO)N1C[C@H](C)[C@H](CN(C)Cc2ccc(Cl)c(Cl)c2)Oc2c(NS(C)(=O)=O)cccc2C1=O |  |  |  | 17.3 µM (active) |  |
| C[C@@H]1CN([C@H](C)CO)C(=O)Cc2cc(NC(=O)Nc3ccc(C(F)(F)F)cc3)ccc2O[C@@H]1CN(C)Cc1ccc(Oc2ccccc2)cc1 |  |  |  | 3.3 µM (active) |  |
| C[C@@H]1CN([C@@H](C)CO)C(=O)Cc2cc(NC(=O)Nc3ccc(C(F)(F)F)cc3)ccc2O[C@@H]1CN(C)C(=O)Nc1ccc(C(F)(F)F)cc1 |  |  |  | 3.66 µM (active) |  |
| C[C@@H]1CN([C@H](C)CO)C(=O)Cc2cc(NS(=O)(=O)c3ccc(F)cc3)ccc2O[C@@H]1CN(C)S(=O)(=O)c1ccccc1 |  |  |  | 5.74 µM (active) |  |
| C[C@@H]1CN([C@H](C)CO)C(=O)c2cc(NS(=O)(=O)c3ccc(F)cc3)ccc2O[C@H]1CN(C)Cc1ccc(-c2ccccc2)cc1 |  |  |  | 5.77 µM (active) |  |
| C[C@H](CO)N1C[C@H](C)[C@H](CN(C)Cc2ccc(C(F)(F)F)cc2)Oc2ccc(NC(=O)Cc3cn(C)c4ccccc34)cc2C1=O |  |  |  | 4.35 µM (active) |  |
| C[C@@H]1CN([C@H](C)CO)C(=O)Cc2cc(NC(=O)Nc3ccc4c(c3)OCO4)ccc2O[C@H]1CN(C)Cc1ccc(Oc2ccccc2)cc1 |  |  |  | 3.08 µM (active) |  |
| C[C@H]1CN([C@@H](C)CO)C(=O)c2cccc(N(C)C)c2O[C@H]1CN(C)Cc1ccc(C(=O)Nc2ccccc2N)cc1 |  |  |  | 4.84 µM (active) |  |
| C[C@H](CO)N1C[C@H](C)[C@H](CN(C)S(=O)(=O)c2ccc(Cl)cc2)Oc2c(NC(=O)Nc3ccc(C(F)(F)F)cc3)cccc2C1=O |  |  |  | 4.44 µM (active) |  |
| CCN(CC)c1ccc2cc(C(=O)Nc3ccc4[nH]c(C(=O)N5C[C@@H](CCl)c6c5cc(OC(=O)Nc5ccccc5)c5[nH]cc(C)c65)cc4c3)oc2c1 [CARZELESIN] | 8.38e-05 µM (active) | 0.00016 µM (active) | 259 µM (inactive) |  |  |
| CC1=C2C(=CO[C@H](C)[C@H]2C)C(O)=C(C(=O)O)C1=O [CITRININ] | 17 µM (inactive) | 15.3 µM (inactive) | 11.5 µM (inactive) |  |  |
| C[C@]12C=CC(=O)C=C1CC[C@@H]1[C@@H]2CC[C@]2(C)OC(=O)CC[C@@H]12 [TESTOLACTONE] | 162 µM (inactive) | 458 µM (inactive) | 161 µM (inactive) |  |  |
